Test systems include CCRF-CEM leukemia; HT29 colon; IGROV1 ovarian; K-562 leukemia; MDA-MB-435; NCI-H522 lung; SF-268 CNS; SF-295 CNS; SK-MEL-28 melanoma; HOP-62 NSCLC.
Common to all, as to assay: inhibition of tumour cell growth, NCI panel, 48 h

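Assay format: 96-well plates, 48-hour exposure. GI50 marks 50% less growth. TGI: total growth inhibition.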

For the molecule `COc1cc2c(cc1OC)[C@H](C)N1CCc3cc(OC)c(OC)cc3[C@@H]1C2`, the TGI in the assay on CCRF-CEM leukemia, with HT29 colon, in the assay with IGROV1 ovarian, in the assay with K-562 leukemia, in the assay with MDA-MB-435 and in the assay with NCI-H522 lung was greater than 100 µM throughout. In addition, the TGI with SF-268 CNS, with SF-295 CNS and with SK-MEL-28 melanoma was greater than 100 µM in each case.
As for `O=C(Nc1cccc(-n2cc(-c3ccncc3)c(-c3ccc(Cl)c(O)c3)n2)c1)Nc1cc(C(F)(F)F)cc(C(F)(F)F)c1`, the GI50 is 0.789 µM in the assay with CCRF-CEM leukemia; 0.902 µM in the assay with HOP-62 NSCLC; 0.711 µM in the assay on HT29 colon; 0.795 µM in the assay with IGROV1 ovarian; 0.52 µM in the assay with K-562 leukemia; 0.829 µM with MDA-MB-435. Moreover, the GI50 in the assay on NCI-H522 lung is 0.707 µM; with SF-268 CNS, 0.846 µM; in the assay with SF-295 CNS, 0.618 µM; in the assay with SK-MEL-28 melanoma, 0.807 µM. Also, the TGI with CCRF-CEM leukemia is 6.78 µM; in the assay with HOP-62 NSCLC it was 1.81 µM; with HT29 colon, 1.64 µM; with IGROV1 ovarian, 2.55 µM; with K-562 leukemia, 2.98 µM; in the assay with MDA-MB-435, 2.07 µM. Moreover, the TGI in the assay on NCI-H522 lung was determined as 2.1 µM; with SF-268 CNS it was 2.29 µM; in the assay with SF-295 CNS, 1.65 µM; with SK-MEL-28 melanoma, 1.61 µM.
Consider `C=C(C(N)=O)c1ccc([N+](=O)[O-])o1`, for which the TGI in the assay with CCRF-CEM leukemia was found to be 18.9 µM; in the assay with HOP-62 NSCLC, 46.8 µM; in the assay with HT29 colon it was 30.6 µM; in the assay on IGROV1 ovarian, 23.4 µM; with K-562 leukemia, 26 µM; in the assay with MDA-MB-435, 7.65 µM. Besides, the TGI in the assay with NCI-H522 lung is 4.24 µM; with SF-268 CNS it was 37.9 µM; with SF-295 CNS it was greater than 100 µM; with SK-MEL-28 melanoma, 12.7 µM.
On to `O=C1CCCCCCCCCCC1CN1CCCC1` (centres undefined), for which the TGI in the assay with CCRF-CEM leukemia is greater than 100 µM; in the assay on HOP-62 NSCLC, 34.7 µM; in the assay with HT29 colon it was 77.1 µM; in the assay with IGROV1 ovarian it was greater than 100 µM; in the assay with K-562 leukemia, greater than 100 µM; in the assay with MDA-MB-435, greater than 100 µM. Further, the TGI with NCI-H522 lung was greater than 100 µM; in the assay with SF-268 CNS, greater than 100 µM; with SF-295 CNS, 86.3 µM; with SK-MEL-28 melanoma it was 55.6 µM.
For `COc1cccc(-c2c[nH]c3c(N/N=C/c4ccncc4)ncnc23)c1`, the GI50 is 1.93 µM in the assay with CCRF-CEM leukemia; 3.74 µM with HOP-62 NSCLC; 1.58 µM in the assay on HT29 colon; 3.9 µM in the assay on IGROV1 ovarian; 1 µM in the assay on K-562 leukemia; 1.83 µM with MDA-MB-435. The GI50 in the assay on NCI-H522 lung was 2.25 µM; in the assay with SF-268 CNS, 3.44 µM; in the assay on SF-295 CNS it was 3.5 µM; with SK-MEL-28 melanoma, 3.42 µM. The TGI is greater than 25 µM with CCRF-CEM leukemia; greater than 15.3 µM with HOP-62 NSCLC; 8.9 µM in the assay on HT29 colon; greater than 25 µM with IGROV1 ovarian; greater than 25 µM with K-562 leukemia; 6.9 µM in the assay with MDA-MB-435. In addition, the TGI is 7.78 µM in the assay with NCI-H522 lung, 13.3 µM in the assay with SF-268 CNS, greater than 25 µM in the assay on SF-295 CNS and greater than 16 µM in the assay on SK-MEL-28 melanoma.
In the case of `O=C1OCC2=C1C(c1cccc(Cl)c1)c1cc3c(cc1N2CCO)OCCO3` (centres undefined), the GI50 with CCRF-CEM leukemia is 0.112 µM; in the assay on HOP-62 NSCLC, 0.0787 µM; with HT29 colon it was 0.0402 µM; with IGROV1 ovarian, 0.0792 µM; in the assay with K-562 leukemia, 0.0481 µM; in the assay with MDA-MB-435 it was 0.0236 µM. The GI50 with NCI-H522 lung is 0.0204 µM; in the assay with SF-268 CNS, 0.0598 µM; in the assay on SF-295 CNS, 0.0403 µM; with SK-MEL-28 melanoma, 0.0839 µM. Further, the TGI in the assay with CCRF-CEM leukemia was greater than 100 µM; in the assay on HOP-62 NSCLC, 40.5 µM; in the assay on HT29 colon, 0.282 µM; in the assay with IGROV1 ovarian, greater than 47.4 µM; with K-562 leukemia it was greater than 45.7 µM; in the assay with MDA-MB-435, 0.0626 µM. In addition, the TGI was 0.0608 µM with NCI-H522 lung, 13.2 µM with SF-268 CNS, 3.25 µM with SF-295 CNS and greater than 100 µM in the assay on SK-MEL-28 melanoma.
As for `C=CCN=C(N/N=C/c1ccc([N+](=O)[O-])o1)NS(=O)(=O)c1cc(C(=O)Nc2ccc(Cl)cc2)c(Cl)cc1SC`, the GI50 is 4.81 µM in the assay on CCRF-CEM leukemia; 1.8 µM in the assay with HOP-62 NSCLC; 5.81 µM in the assay on HT29 colon; greater than 69.9 µM in the assay on IGROV1 ovarian; 2.41 µM in the assay on K-562 leukemia; 2.88 µM with MDA-MB-435. For the same molecule, the GI50 was greater than 58.8 µM in the assay on NCI-H522 lung, 2.85 µM in the assay with SF-268 CNS, greater than 100 µM with SF-295 CNS and 25.9 µM in the assay with SK-MEL-28 melanoma. Also, the TGI is greater than 100 µM in the assay on CCRF-CEM leukemia; 7.32 µM in the assay with HOP-62 NSCLC; greater than 100 µM with HT29 colon; greater than 100 µM in the assay with IGROV1 ovarian; greater than 21.2 µM in the assay on K-562 leukemia; 7.05 µM with MDA-MB-435. Also, the TGI in the assay on NCI-H522 lung, in the assay with SF-268 CNS, with SF-295 CNS and with SK-MEL-28 melanoma was greater than 100 µM each time.
For the molecule `COc1cc(OC)c2nc(C)c3c(c2c1)SCC3`, the TGI is greater than 100 µM in the assay on CCRF-CEM leukemia; 34.6 µM with HOP-62 NSCLC; 99.4 µM with HT29 colon; 34.7 µM in the assay on IGROV1 ovarian; greater than 100 µM in the assay on K-562 leukemia; 58.3 µM in the assay on MDA-MB-435. Besides, the TGI with NCI-H522 lung is 77.8 µM; in the assay with SF-268 CNS, 44.6 µM; in the assay on SF-295 CNS it was 65.9 µM; with SK-MEL-28 melanoma, greater than 100 µM.
On to `N#C/C(=C\c1ccsc1)c1nc2ccccc2o1`, for which the TGI in the assay with CCRF-CEM leukemia was 26.3 µM; in the assay on HT29 colon, greater than 100 µM; in the assay with IGROV1 ovarian, greater than 100 µM; with K-562 leukemia, greater than 100 µM; with MDA-MB-435, greater than 100 µM; with NCI-H522 lung, greater than 100 µM. Further, the TGI with SF-268 CNS, in the assay with SF-295 CNS and in the assay with SK-MEL-28 melanoma was greater than 100 µM in each case. In addition, the GI50 with HT29 colon is greater than 100 µM; in the assay on IGROV1 ovarian it was 33.3 µM; in the assay on K-562 leukemia, greater than 100 µM; in the assay on MDA-MB-435 it was greater than 100 µM; in the assay with NCI-H522 lung, 50.6 µM; in the assay with SF-268 CNS, 38 µM. Moreover, the figures for the GI50 in the assay with SF-295 CNS and with SK-MEL-28 melanoma were 31.5 µM and greater than 100 µM, respectively.
As to `COc1cc(OC)c(C/C=C/c2ccccc2)cc1O`, the TGI was 51.6 µM in the assay with CCRF-CEM leukemia; 31.5 µM in the assay on HT29 colon; 29.9 µM with IGROV1 ovarian; 33 µM in the assay with K-562 leukemia; 30.7 µM in the assay on MDA-MB-435; 27.2 µM in the assay on NCI-H522 lung. Further, the TGI with SF-268 CNS was found to be 34.4 µM; in the assay on SK-MEL-28 melanoma it was 30.4 µM.

The values above are taken from PubChem BioAssay (NCI).
